Measurements reported in patent publication US20180200259A1 (priority 2015, published 2018).
Where a name gives a salt, the structure may show the parent alone. Read-outs that look alike come from different tables or passages of the source.

Columns and labels:
[1] = tested on: adrenal chromaffin and human neuroblastoma cells; settings: comparison cholinesterase inhibitor; cited from earlier work
[2] = tested on: mild to moderate AD patients; settings: cited from earlier work
[3] = tested on: Rat cortical neurons; assay: Neurite assessment: Aβ1-42 oligomer injury of cortical neurons (MAP-2); type: cell-based; settings: 1 μM; Aβ oligomer 20 μM, 24 h
Description: Rat cortical neurons were cultured as described by Callizot et al (J Neurosci Res 2013; 91:706-716). On day II of culture, Aβ oligomer solution, 20 μM, was applied. The Aβ oligomer preparation, having an average weight of 90 kDa, prepared as described by Callizot et al (op cit) contained only diffusible species, not fibrils or protofibrils. Briefly, Aβ1-42 peptide at a concentration of 40 μM was dissolved in the culture medium, gently agitated for 3 days at 37° C. in the dark, and used immediately after dilution. Test compound and BDNF (50 ng/ml) were dissolved in culture medium (maximum of 0.1% DMSO final concentration) then pre-incubated with primary cortical neurons for 24 h before the Aβ1-42 oligomer solution application
The oligomers were incubated with the neurons and various concentrations of test compound or BDNF, 50 ng/ml, the positive control, for 24 hours, in 6 replicates per condition. Then the supernatant was removed and the neurons were fixed with a cold ethanol and acetic acid solution. The cells were permeabilized with 0.4% saponin and then incubated for 2 h with mouse monoclonal antibody […] microtubule-associated protein 2 (MAP-2). Subsequently, Alexa-Fluor 488 goat anti-mouse IgG was applied, and images were obtained and analyzed automatically.

[4] = tested on: Bv-2 microglial cells; assay: Aβ oligomer clearance measurement in Bv-2 microglial cell cultures; type: cell-based; settings: 0.33 μM galantamine; 24 h before oligomerized Aβ1-42 (10 μM) for 6 h
Description: Aβ oligomers were prepared using beta-amyloid (1-42) from American Peptide (Product #62-0-80). One aliquot was dissolved in an adequate volume of TBS (50 mM Tris-Buffer, 150 mM NaCl, pH-7.4) to achieve a final concentration of 1.7 mg/ml (corresponding to 340 μM). The solution was sonicated for 2 minutes and then diluted 1:2 in water to obtain a final concentration of 170 μM. Next, the Aβ was allowed to aggregate at 4° C. for 48 hours. Prior to application, the solution was sonicated for another minute.
Bv-2 microglial cells were kept in culture medium (DMEM medium, 10% FBS, 2 mM glutamine, 1% Penc/Strep) until 80-90% confluency. Cells were maintained at 37° C., 95% humidity and 5% CO2. Afterwards, cells were seeded in culture medium on 24-well plates at a cell density of 1×10^5 cells per well. After 24 h, the medium was exchanged for the treatment medium (DMEM medium, 5% FBS, 2 mM glutamine). […] The medium was separated by affinity (removing monomers) and the oligomers not phagocytosed were disaggregated by hexafluoroisopropanol (HFIP) treatment and measured by MSD. […]
The immune assay was carried out according to the Mesoscale Discovery manual and plates were read on the Sector Imager (MSD). Analyte levels were evaluated according to adequate Aβ peptide standards (MSD). […] Data are presented as mean ±standard error of mean (SEM) Group differences are evaluated by one-way ANOVA.

[5] = tested on: CA1 pyramidal neurons in the dorsal hippocampus; assay: Dendritic spine assessment (Afraxis ESP) after five days ip dosing; type: in vivo, mice; settings: 0.1 mg/kg per day for five days
Description: Adult C57B16 mice, (8 weeks old) were administered vehicle or test sample, 0.005, 0.03, 0.07, 0.1 or 0.2 mg/kg, ip, per day for five days prior to sacrifice after rapid anesthetization with isofluorane. Brain tissue was sectioned into […] slices from anterior to posterior extremes.
Ballistic dye labelling was performed, followed by laser-scanning confocal microscopy (Olympus FV1000) using a 63× objective (1.42 NA) to scan individually labelled neurons at high resolution (0.103×0.103×0.33 μm voxels). Target neurons were identified in the brain region of interest by anatomical location and cell morphology. Microscopy was performed blind to experimental conditions. A minimum of 5 samples per animal were measured for each segment.
Afraxis ESP dendritic spine analysis and assessment of dendritic membrane integrity. Blind deconvolution (AutoQuant) was applied to raw three-dimensional digital images which were then analyzed for spine density and morphology by trained analysts, individual spines were measured manually for (a) head diameter, (b) length, and (c) neck thickness from image Z-stacks using custom-built Afraxis ESP software. Each dendrite was analyzed by 3 independent analysts. […]
Statistics. […] For all group comparisons of parametric values, statistical significance was determined using the analysis of variance test (ANOVA; SPSS). […]

Nc1c2c(nc3ccccc13)CCCC2 [tacrine]
neuroprotective effect against induced apoptosis [1]: did not occur

Solanezumab: antibody directed at the central portion of Aβ
functional decline as measured by the ADCS-ADL ([2]; Expedition I): not significantly affected
reduction of functional decline as measured by the ADCS-ADL ([2]; Expedition II): 19%
additional cognitive deterioration on the ADAS-cog versus placebo ([2]; patients not receiving cholinesterase inhibitors (no SOC)): 3.6 points
additional cognitive deterioration on the ADAS-cog versus placebo ([2]; patients on memantine only): 4.1 points

COc1ccc2c3c1O[C@H]1C[C@@H](O)C=C[C@@]31CCN(C)C2 [Galantamine hydrobromide]
protective effect on neurite network reduced by Aβ oligomer [3]: significant protective effect
Aβ1-42 oligomers in the medium [4]: reduced Aβ1-42 oligomers in the medium significantly
spine density in apical dendritic samples [5]: significant increase
